In patent publication US20230087118A1, “IMIDAZO[1,2-a][sequence] DERIVATIVES AND THEIR USE IN THE TREATMENT OF DISEASE” (priority 2019, published 2023):
Counter-ions that a name gives are not always drawn. Like-named read-outs stand apart in the source and are kept apart here.

Molecular target: T1, IRAK4 (Homo sapiens, UniProt Q9NWZ3)
T1 sequence (Q9NWZ3 1-460): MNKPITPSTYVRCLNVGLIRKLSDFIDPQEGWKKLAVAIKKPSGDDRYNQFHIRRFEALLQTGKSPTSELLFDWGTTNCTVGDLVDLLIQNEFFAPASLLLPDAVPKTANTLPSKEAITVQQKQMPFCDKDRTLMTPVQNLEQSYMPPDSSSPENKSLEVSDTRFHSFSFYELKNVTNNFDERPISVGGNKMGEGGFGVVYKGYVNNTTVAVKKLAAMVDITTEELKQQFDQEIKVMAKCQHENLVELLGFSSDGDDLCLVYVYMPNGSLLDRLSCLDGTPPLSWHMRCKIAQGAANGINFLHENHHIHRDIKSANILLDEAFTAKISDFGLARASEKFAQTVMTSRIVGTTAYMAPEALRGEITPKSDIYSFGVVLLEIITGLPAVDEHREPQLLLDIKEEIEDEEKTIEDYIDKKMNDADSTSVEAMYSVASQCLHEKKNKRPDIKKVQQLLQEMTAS
Assay: biochemical

[1] = IRAK4 Biochemical Assay (1 mM ATP, 2 h) IC50 (μM), 1 mM ATP, 2 h, 100 pM IRAK4

Row | Compound | IC50 [µM] | IC50 [1] [µM]
1 | CC(C)Oc1nc(C(=O)Nc2cnn3cccnc23)cn2cc(C34COC(CF)(C3)C4)nc12 [Example 340, 2-(1-(Fluoromethyl)-2-oxabicyclo[2.1.1]hexan-4-yl)-8-isopropoxy-N-(pyrazolo[1,5-a]pyrimidin-3-yl)imidazo[1,2-a]pyrazine-6-carboxamide] | 0.0067 | –
2 | CC(C)Oc1nc(C(=O)Nc2cccn(C)c2=O)cn2cc(C34CCC(C)(C3)OC4)nc12 (stereo not shown) [Example 341, 8-Isopropoxy-N-(1-methyl-2-oxo-1,2-dihydropyridin-3-yl)-2-(1-methyl-2-oxabicyclo[2.2.1]heptan-4-yl)imidazo[1,2-a]pyrazine-6-carboxamide] | 0.0009 | –
3 | CCCOc1nc(C(=O)Nc2cccnc2OC)cn2cc(C34COC(C)(C3)C4)nc12 [Example 342, N-(2-methoxypyridin-3-yl)-2-(1-methyl-2-oxabicyclo[2.1.1]hexan-4-yl)-8-propoxyimidazo[1,2-a]pyrazine-6-carboxamide] | 0.001 | –
4 | CCCOc1nc(C(=O)Nc2cccc(C(F)(F)F)n2)cn2cc(C34COC(C)(C3)C4)nc12 [Example 343, 2-(1-Methyl-2-oxabicyclo[2.1.1]hexan-4-yl)-8-propoxy-N-(6-(trifluoromethyl)pyridin-2-yl)imidazo[1,2-a]pyrazine-6-carboxamide] | 0.0048 | –
5 | CC12CC(c3cn4cc(C(=O)Nc5cccc(C(F)F)n5)nc(OCC(F)F)c4n3)(CO1)C2 [Example 344, 8-(2,2-Difluoroethoxy)-N-(6-(difluoromethyl)pyridin-2-yl)-2-(1-methyl-2-oxabicyclo[2.1.1]hexan-4-yl)imidazo[1,2-a]pyrazine-6-carboxamide] | 0.0034 | –
6 | CC12CC(c3cn4cc(C(=O)Nc5cccc(C(F)F)n5)nc(OC5CCC5)c4n3)(CO1)C2 [Example 345, 8-Cyclobutoxy-N-(6-(difluoromethyl)pyridin-2-yl)-2-(1-methyl-2-oxabicyclo[2.1.1]hexan-4-yl)imidazo[1,2-a]pyrazine-6-carboxamide] | 0.0022 | –
7 | Cn1ccc(NC(=O)c2cn3cc(C45COC(C)(C4)C5)nc3c(OC3CCC3)n2)n1 [Example 346, 8-Cyclobutoxy-N-(1-methyl-1H-pyrazol-3-yl)-2-(1-methyl-2-oxabicyclo[2.1.1]hexan-4-yl)imidazo[1,2-a]pyrazine-6-carboxamide] | 0.0085 | –
8 | COc1ncccc1NC(=O)c1cn2cc(C34COC(C)(C3)C4)nc2c(OC2CCC2)n1 [Example 347, 8-Cyclobutoxy-N-(2-methoxypyridin-3-yl)-2-(1-methyl-2-oxabicyclo[2.1.1]hexan-4-yl)imidazo[1,2-a]pyrazine-6-carboxamide] | 0.0006 | –
9 | CC12CC(c3cn4cc(C(=O)Nc5cccc6ccnn56)nc(OC5CCC5)c4n3)(CO1)C2 [Example 348, 8-Cyclobutoxy-2-(1-methyl-2-oxabicyclo[2.1.1]hexan-4-yl)-N-(pyrazolo[1,5-a]pyridin-7-yl)imidazo[1,2-a]pyrazine-6-carboxamide] | 0.0082 | –
10 | CC12CC(c3cn4cc(C(=O)Nc5cnn6cccnc56)nc(OC5CCC5)c4n3)(CO1)C2 [Example 349, 8-Cyclobutoxy-2-(1-methyl-2-oxabicyclo[2.1.1]hexan-4-yl)-N-(pyrazolo[1,5-a]pyrimidin-3-yl)imidazo[1,2-a]pyrazine-6-carboxamide] | 0.0053 | –
11 | COCc1nc2nc(C34COC(C)(C3)C4)cn2cc1C(=O)Nc1cnn2cc(C)cnc12 [Example 352, 7-(Methoxymethyl)-2-(1-methyl-2-oxabicyclo[2.1.1]hexan-4-yl)-N-(6-methylpyrazolo[1,5-a]pyrimidin-3-yl)imidazo[1,2-a]pyrimidine-6-carboxamide] | 6.53 | –
12 | CC(C)Oc1nc2nc(C34COC(C)(C3)C4)cn2cc1C(=O)Nc1nc(C(F)F)cs1 [Example 367, N-(4-(difluoromethyl)thiazol-2-yl)-7-isopropoxy-2-(1-methyl-2-oxabicyclo[2.1.1]hexan-4-yl)imidazo[1,2-a]pyrimidine-6-carboxamide] | 0.0079 | –
13 | CC(C)Oc1nc2nc(C34COC(C)(C3)C4)cn2cc1C(=O)Nc1cnn2cc(C(F)F)cnc12 [Example 369, N-(6-(difluoromethyl)pyrazolo[1,5-a]pyrimidin-3-yl)-7-isopropoxy-2-(1-methyl-2-oxabicyclo[2.1.1]hexan-4-yl)imidazo[1,2-a]pyrimidine-6-carboxamide] | 0.0008 | –
14 | Cn1ccc(NC(=O)c2cn3cc(C45COC(C)(C4)C5)nc3nc2OCC2CC2)n1 [Example 370, 7-(Cyclopropylmethoxy)-N-(1-methyl-1H-pyrazol-3-yl)-2-(1-methyl-2-oxabicyclo[2.1.1]hexan-4-yl)imidazo[1,2-a]pyrimidine-6-carboxamide] | 0.0016 | –
15 | CC12CC(c3cn4cc(C(=O)Nc5cnn6cccnc56)c(OC5CCC5)nc4n3)(CO1)C2 [Example 371, 7-Cyclobutoxy-2-(1-methyl-2-oxabicyclo[2.1.1]hexan-4-yl)-N-(pyrazolo[1,5-a]pyrimidin-3-yl)imidazo[1,2-a]pyrimidine-6-carboxamide] | 0.0003 | –

Further lines, results first:

Row | IC50 [µM] | IC50 [1] [µM] | Compound
16 | – | 0.0025 | CC(C)Oc1nc2nc(C34COC(C)(C3)C4)cn2cc1C(=O)Nc1cccc(C#N)c1F [Example 353, N-(3-cyano-2-fluorophenyl)-7-isopropoxy-2-(1-methyl-2-oxabicyclo[2.1.1]hexan-4-yl)imidazo[1,2-a]pyrimidine-6-carboxamide trifluoroacetate]
17 | 0.0053 | – | CC(C)Oc1nc2nc(C34COC(C)(C3)C4)cn2cc1C(=O)Nc1ccccn1 [Example 354, 7-Isopropoxy-2-(1-methyl-2-oxabicyclo[2.1.1]hexan-4-yl)-N-(pyridin-2-yl)imidazo[1,2-a]pyrimidine-6-carboxamide]
18 | 0.0016 | – | Cc1cccc(NC(=O)c2cn3cc(C45COC(C)(C4)C5)nc3nc2OC(C)C)n1 [Example 355, 7-Isopropoxy-2-(1-methyl-2-oxabicyclo[2.1.1]hexan-4-yl)-N-(6-methylpyridin-2-yl)imidazo[1,2-a]pyrimidine-6-carboxamide]
19 | – | 0.0011 | CC(C)Oc1nc2nc(C34COC(C)(C3)C4)cn2cc1C(=O)Nc1cccc(C(C)(F)F)n1 [Example 356, N-(6-(1,1-difluoroethyl)pyridin-2-yl)-7-isopropoxy-2-(1-methyl-2-oxabicyclo[2.1.1]hexan-4-yl)imidazo[1,2-a]pyrimidine-6-carboxamide trifluoroacetate]
20 | – | 0.0003 | CC(C)Oc1nc2nc(C34COC(C)(C3)C4)cn2cc1C(=O)Nc1cccc(N(C)C)n1 [Example 357, N-(6-(dimethylamino)pyridin-2-yl)-7-isopropoxy-2-(1-methyl-2-oxabicyclo[2.1.1]hexan-4-yl)imidazo[1,2-a]pyrimidine-6-carboxamide trifluoroacetate]
21 | – | 0.0009 | CC(C)Oc1nc2nc(C34COC(C)(C3)C4)cn2cc1C(=O)Nc1cccc(C2CCOC2)n1 (stereo not shown) [Example 359, 7-Isopropoxy-2-(1-methyl-2-oxabicyclo[2.1.1]hexan-4-yl)-N-(6-(tetrahydro-furan-3-yl)pyridin-2-yl)imidazo[1,2-a]pyrimidine-6-carboxamide trifluoroacetate]
22 | 0.0111 | – | CC(C)Oc1nc2nc(C34COC(C)(C3)C4)cn2cc1C(=O)Nc1cc(F)n(C)n1 [Example 360, N-(5-fluoro-1-methyl-1H-pyrazol-3-yl)-7-isopropoxy-2-(1-methyl-2-oxabicyclo[2.1.1]hexan-4-yl)imidazo[1,2-a]pyrimidine-6-carboxamide]
23 | 0.0037 | – | CC(C)Oc1nc2nc(C34COC(C)(C3)C4)cn2cc1C(=O)Nc1ccn(C(F)F)n1 [Example 361, N-(1-(difluoromethyl)-1H-pyrazol-3-yl)-7-isopropoxy-2-(1-methyl-2-oxabicyclo[2.1.1]hexan-4-yl)imidazo[1,2-a]pyrimidine-6-carboxamide]
24 | 0.0082 | – | CC(C)Oc1nc2nc(C34COC(C)(C3)C4)cn2cc1C(=O)Nc1ccn(C(F)(F)F)n1 [Example 362, 7-Isopropoxy-2-(1-methyl-2-oxabicyclo[2.1.1]hexan-4-yl)-N-(1-(trifluoromethyl)-1H-pyrazol-3-yl)imidazo[1,2-a]pyrimidine-6-carboxamide]
25 | – | 0.0057 | CC(C)Oc1nc2nc(C34COC(C)(C3)C4)cn2cc1C(=O)Nc1ccn(C2CCC2)n1 [Example 364, N-(1-cyclobutyl-1H-pyrazol-3-yl)-7-isopropoxy-2-(1-methyl-2-oxabicyclo[2.1.1]hexan-4-yl)imidazo[1,2-a]pyrimidine-6-carboxamide trifluoroacetate]
26 | – | 0.0128 | CC(C)Oc1nc2nc(C34COC(C)(C3)C4)cn2cc1C(=O)Nc1cnn(C)n1 [Example 365, 7-Isopropoxy-N-(2-methyl-2H-1,2,3-triazol-4-yl)-2-(1-methyl-2-oxabicyclo[2.1.1]hexan-4-yl)imidazo[1,2-a]pyrimidine-6-carboxamide trifluoroacetate]
27 | – | 0.0065 | CC(C)Oc1nc2nc(C34COC(C)(C3)C4)cn2cc1C(=O)Nc1ccc2c(n1)CCC2 [Example 366, N-(6,7-dihydro-5H-cyclopenta[b]pyridin-2-yl)-7-isopropoxy-2-(1-methyl-2-oxabicyclo[2.1.1]hexan-4-yl)imidazo[1,2-a]pyrimidine-6-carboxamide trifluoroacetate]
28 | 0.0002 | – | CC(C)Oc1nc2nc(C34COC(C)(C3)C4)cn2cc1C(=O)Nc1cccc(-c2cnco2)n1 [Example 368, 7-Isopropoxy-2-(1-methyl-2-oxabicyclo[2.1.1]hexan-4-yl)-N-(6-(oxazol-5-yl)pyridin-2-yl)imidazo[1,2-a]pyrimidine-6-carboxamide]
